Data published in patent EP0135194A1, “Azetidinones and their production” (Takeda Chemical Industries, Ltd., priority 1983, dated 1985).
Where a name gives a salt, the structure may show the parent alone.

What was measured:
Experiment in all cases: MIC by agar dilution method
Type in all cases: cell-based
[1] = test system: Proteus vulgaris IFO 3988; details: IFO3988, test organism (3), Trypticase soy agar, about 10^8 CFU/mℓ, overnight at 37°C
Experimental: (§1) With regard to the objective compounds as obtained in Examples 2 to 5 and 17 to 19, MICs (µg/mℓ) were measured by the method to be described below and the results are tabulated in the following table.
(§2) The MIC of a test compound was determined by the agar dilution method. Thus, 1.0 mℓ each of successively diluted,; aqueous solutions of a test compound are poured in a petri dish, respectively, and then 9.0 mℓ of Trypticase soy agar was poured, followed by mixing. A suspension (about 10^8 CFU/ mℓ) of a test organism was smeared on the mixed agar plates. After incubation overnight at 37°C, the minimum concentration of the test compound to inhibit fully the growth of the test organism is determined as the minimal inhibitory concentration (MIC).
(§3) • (1) Escherchia coli NIHJ JC-2; • (2) Serratia marcescens IFO 12648 • (3) Proteus vulgaris IFO 3988 • (4) Proteus mirabilis IFO 3849 • (5) Pseudomonas aeruginosa IFO 3455 • (6) Enterobacter cloacae IFO 12937

[2] = test system: Pseudomonas aeruginosa IFO 3455; details: IFO3455, test organism (5), Trypticase soy agar, about 10^8 CFU/mℓ, overnight at 37°C
Experimental: as §1, §2, §3

[3] = test system: Serratia marcescens IFO 12648; details: IFO12648, test organism (2), Trypticase soy agar, about 10^8 CFU/mℓ, overnight at 37°C
Experimental: as §1, §2, §3

[4] = test system: Proteus mirabilis IFO 3849; details: IFO3849, test organism (4), Trypticase soy agar, about 10^8 CFU/mℓ, overnight at 37°C
Experimental: as §1, §2, §3

[5] = test system: Escherchia coli NIHJ JC-2; details: test organism (1); Trypticase soy agar, about 10^8 CFU/mℓ, overnight at 37°C
Experimental: as §1, §2, §3

[6] = test system: Enterobacter cloacae IFO 12937; details: IFO12937, test organism (6), Trypticase soy agar, about 10^8 CFU/mℓ, overnight at 37°C
Experimental: as §1, §2, §3

Structure (SMILES) | MIC [1] | MIC [2] | MIC [3] | MIC [4] | MIC [5] | MIC [6]
C[C@H]1[C@H](NC(=O)/C(=N\OCC(=O)O)c2csc(N)n2)C(=O)N1OCC(=O)O [Example 19, (3S,4S)-3-[2-(2-aminothiazol-4-yl)-(Z)-2-carboxymethoxy-iminoacetamido]-1-carboxymethoxy-4-methyl-2-azetidinone disodium salt] | 0.39 µg/mL | > 100 µg/mL | 0.39 µg/mL | 0.39 µg/mL | 0.39 µg/mL | 50 µg/mL
NC(=O)OC[C@H]1[C@H](NC(=O)/C(=N\OCC(=O)O)c2csc(N)n2)C(=O)N1OCC(=O)O (relative stereo) [Example 17, trans-3-[2-(2-aminothiazol-4-yl)-(Z)-2-carboxymethoxyiminoacetamido]-4-carbamoyloxymethyl-l-carboxy-methoxy-2-azetidinone disodium salt] | 0.39 µg/mL | 100 µg/mL | 0.39 µg/mL | 0.39 µg/mL | 0.39 µg/mL | 0.78 µg/mL
CC(C)(O/N=C(\C(=O)N[C@@H]1C(=O)N(OCC(=O)O)[C@H]1COC(N)=O)c1csc(N)n1)C(=O)O (relative stereo) [Example 18, trans-3-[2-(2-aminothiazol - 4-yl) - (Z) -2-(1-carboxy-1-methylethoxyimino)acetamido]-4-carbamoyloxymethyl-l-carboxymethoxy-2-azetidinone disodium salt] | < 0.1 µg/mL | 12.5 µg/mL | 0.39 µg/mL | < 0.1 µg/mL | 0.78 µg/mL | 0.78 µg/mL
C[C@H]1[C@H](NC(=O)/C(=N\OC(C)(C)C(=O)O)c2csc(N)n2)C(=O)N1OCC(=O)O [Example 3, (3S,4S)-3-[2-(2-aminothiazol-4-yl)-(Z)-2-(1-carboxy-1-methylethoxyimino)acetamido]-1-carboxymethoxy-4-methyl-2-azetidinone disodium salt] | < 0.1 µg/mL | 6.25 µg/mL | 0.39 µg/mL | < 0.1 µg/mL | 0.39 µg/mL | 12.5 µg/mL
CO/N=C(\C(=O)N[C@@H]1C(=O)N(OCC(=O)O)[C@H]1C)c1csc(N)n1 [Example 2, (3S,4S)-3-[2-aminothiazol-4-yl)-(Z)-2-methoxyiminoacetamido]-1-carboxymethoxy-4-methyl-2-azetidinone monosodium salt] | 0.39 µg/mL | > 100 µg/mL | 0.39 µg/mL | 0.39 µg/mL | 0.39 µg/mL | 12.5 µg/mL
CC(C)(O/N=C(\C(=O)N[C@H]1CN(OCC(=O)O)C1=O)c1csc(N)n1)C(=O)O [Example 5, (3S)-3-[2-(2-aminothiazol-4-yl)-(Z)-2-(1-carboxy-1-methylethoxyimino)acetamido]-1-carboxymethoxy-2-azetidinone disodium salt] | 0.78 µg/mL | 6.25 µg/mL | 1.56 µg/mL | 1.56 µg/mL | 0.78 µg/mL | 50 µg/mL
CCN1CCN(C(=O)N[C@@H](C(=O)N[C@@H]2C(=O)N(OCC(=O)O)[C@H]2C)c2ccccc2)C(=O)C1=O [Example 4, (3S,4S)-1-carboxymethoxy-3-[(D)-2-(4-ethyl-2,3-dioxopiperazine-1-carbonylamino)-2-phenylacetamido]-4-methyl-2-azetidinone monosodium salt] | 1.56 µg/mL | 25 µg/mL | 6.25 µg/mL | 12.5 µg/mL | 12.5 µg/mL | > 100 µg/mL
